The test deals with T1, hen egg-white lysozyme (HEWL); chicken egg lysozyme (Gallus gallus, UniProt P00698).
T1 construct: gene LYZ
The test can be described thus: 1H NMR titration, Trp imino CSP (W62, W111, W123), […] fit. Type of test: binding.

From PMC9853864, “Nonspecific Binding of Adenosine Tripolyphosphate and Tripolyphosphate Modulates the Phase Behavior of Lysozyme” (Journal of the American Chemical Society, 2023) come the findings set out here.

T1 sequence (P00698 19-147): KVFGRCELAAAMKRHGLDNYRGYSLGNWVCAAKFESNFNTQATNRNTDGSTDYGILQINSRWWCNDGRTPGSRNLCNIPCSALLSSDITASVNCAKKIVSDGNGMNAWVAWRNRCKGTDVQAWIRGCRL

By Kd is commonly meant the constant that tells how readily two partners part at equilibrium. Read a low Kd as higher affinity. `O=P(O)(O)OP(=O)(O)OP(=O)(O)O` [TPP] came in with a dissociation constant Kd of around 1000 µM.
